The assay deals with MX-1 breast xenograft, nude mice, tumor weight change. Description: NCI In Vivo Anticancer Drug Screen. Data for tumor model Human Mammary Carcinoma MX-1 Xenograft (subcutaneous) in NU/NU Swiss (nude) mice. Particulars: endpoint: optimum tumor weight change, higher = larger tumour. Here is the method: The antitumor activity of compounds was measured in mice bearing transplantable tumors. Survival or tumor size were measured and the results are expressed as the measurement made in the treated group (T) divided by the measurement made in the vehicle treated control group (C). The tumor model used in this assay is Human Mammary Carcinoma MX-1 Xenograft (subcutaneous) in NU/NU Swiss (nude) mice

Setting [1] is: dose: 100.0 mg/kg/injection, schedule: Q04DX003 (ip), vehicle: saline with Tween-80.
Setting [2] is: dose: 200.0 mg/kg/injection, schedule: Q04DX003 (ip), vehicle: saline with Tween-80.
[3] abbreviates: dose: 400.0 mg/kg/injection, schedule: Q04DX003 (ip), vehicle: saline with Tween-80.
Setting [4] is: dose: 5.0 mg/kg/injection, schedule: Q04DX003 (ip), vehicle: Klucel (hydroxypropylcellulose) (HPC).
Where [5] appears, read: dose: 10.0 mg/kg/injection, schedule: Q04DX003 (ip), vehicle: Klucel (hydroxypropylcellulose) (HPC).
Where [6] appears, read: dose: 100.0 mg/kg/injection, schedule: Q04DX003 (ip), vehicle: suspension in saline.
The mark [7] stands for this setting: dose: 200.0 mg/kg/injection, schedule: Q04DX003 (ip), vehicle: suspension in saline.
The mark [8] stands for this setting: dose: 400.0 mg/kg/injection, schedule: Q04DX003 (ip), vehicle: suspension in saline.
Where [9] appears, read: dose: 50.0 mg/kg/injection, schedule: Q04DX003 (ip), vehicle: Klucel (hydroxypropylcellulose) (HPC).
Where [10] appears, read: dose: 100.0 mg/kg/injection, schedule: Q04DX003 (ip), vehicle: Klucel (hydroxypropylcellulose) (HPC).
Setting [11] is: dose: 1.0 mg/kg/injection, schedule: Q04DX003 (ip), vehicle: water.
The mark [12] stands for this setting: dose: 12.5 mg/kg/injection, schedule: Q04DX003 (ip), vehicle: saline.
The mark [13] stands for this setting: dose: 25.0 mg/kg/injection, schedule: Q04DX003 (ip), vehicle: saline.
The mark [14] stands for this setting: dose: 50.0 mg/kg/injection, schedule: Q04DX003 (ip), vehicle: saline.
[15] abbreviates: dose: 7.5 mg/kg/injection, schedule: Q04DX003 (ip), vehicle: saline.
The mark [16] stands for this setting: dose: 30.0 mg/kg/injection, schedule: Q04DX003 (ip), vehicle: saline.
The mark [17] stands for this setting: dose: 60.0 mg/kg/injection, schedule: Q04DX003 (ip), vehicle: saline.
Setting [18] is: dose: 12.5 mg/kg/injection, schedule: Q04DX003 (ip), vehicle: saline with Tween-80.

Where “and” joins values, the source holds several entries; their conditions need not be identical. Equal values may be shown once.

For the compound `ClCC[N+]12CC[N+](CCCl)(CC1)C2`, the T/C is, setting by setting: under setting [1], 60 % of control; under setting [2], 56 % of control; (dose: 200.0 mg/kg/injection, schedule: Q04DX003 (ip), vehicle: water) 51 % of control; under setting [3], 59 % of control; (dose: 400.0 mg/kg/injection, schedule: Q04DX003 (ip), vehicle: water) 53 % of control; (dose: 800.0 mg/kg/injection, schedule: Q04DX003 (ip), vehicle: saline with Tween-80) 31 % of control. Moreover, the T/C (dose: 1600.0 mg/kg/injection, schedule: Q04DX003 (ip), vehicle: saline with Tween-80) is 28 % of control.

As to `C[n+]1c(-c2cccc3ccccc23)c2cc(N)ccc2c2ccccc21`, the T/C by setting is: (dose: 3.0 mg/kg/injection, schedule: Q04DX003 (ip), vehicle: saline) 76 % of control and 82 % of control; (dose: 6.0 mg/kg/injection, schedule: Q04DX003 (ip), vehicle: saline) 78 % of control.

Consider `O=C1N(Cl)C(=O)C(c2ccc(Cl)cc2)(c2ccc(Cl)cc2)N1Cl`, for which the T/C under setting [1] was 98 % of control.

With `Cn1cnc([N+](=O)[O-])c1[Se]c1nc(N)nc2nc[nH]c12`, the T/C (dose: 12.5 mg/kg/injection, schedule: Q04DX003 (ip), vehicle: water) is 103 % of control; the T/C (dose: 25.0 mg/kg/injection, schedule: Q04DX003 (ip), vehicle: water) is 84 % of control; the T/C (dose: 50.0 mg/kg/injection, schedule: Q04DX003 (ip), vehicle: water) is 60 % of control.

As for `N/C(=N\O)c1cn(C2OC(CO)C(O)C2O)c2ncnc(N)c12` (configuration not stated), the T/C was 109 % of control under setting [4]; 80 % of control under setting [5]; 82 % of control (dose: 20.0 mg/kg/injection, schedule: Q04DX003 (ip), vehicle: Klucel (hydroxypropylcellulose) (HPC)).

As to `CC1(CO)C(O)CCC2(C)C1CCC1CC3CC12CCC3(O)CO` (configuration not stated), the T/C by setting is: under setting [1], 50 % of control; under setting [2], 61 % of control; under setting [3], 54 % of control.

Take `CC(CN1CC(=O)NC(=O)C1)N1CC(=O)NC(=O)C1` (configuration not stated): the T/C is 65 % of control under setting [6], 73 % of control under setting [7] and 55 % of control under setting [8].

For the compound `O=C(NO)c1ccccc1`, the T/C is, setting by setting: (dose: 25.0 mg/kg/injection, schedule: Q01DX003 (ip), vehicle: saline) 82 % of control; (dose: 50.0 mg/kg/injection, schedule: Q01DX003 (ip), vehicle: saline) 108 % of control; (dose: 100.0 mg/kg/injection, schedule: Q01DX003 (ip), vehicle: saline) 42 % of control.

For `CS(=O)(=O)OCCN(CCOS(C)(=O)=O)c1ccc(C=Nc2ccc(-c3csc(COc4ccccc4)n3)cc2)cc1`, the T/C is 45 % of control (dose: 25.0 mg/kg/injection, schedule: Q04DX003 (ip), vehicle: Klucel (hydroxypropylcellulose) (HPC)); 64 % of control under setting [9]; 99 % of control under setting [10].

Turning to `COc1cccc2c1C(=O)c1c(O)c3c(c(O)c1C2=O)C[C@@](O)(C(=O)CO)C[C@@H]3OC1CC(N)C(O)C(C)O1` (some centres not stated), the T/C under setting [11] was 97 % of control.

For `OCC1OC(n2cnc3cncnc32)C(O)C1O` (configuration not stated), the T/C reads like this: under setting [12], 88 % of control; under setting [13], 94 % of control; under setting [14], 108 % of control.

For `CNC=O`, the T/C (dose: 200.0 mg/kg/injection, schedule: Q04DX003 (ip), vehicle: saline) is 7 % of control and 29 % of control; the T/C (dose: 400.0 mg/kg/injection, schedule: Q04DX003 (ip), vehicle: saline) is -1 % of control and 17 % of control; the T/C (dose: 800.0 mg/kg/injection, schedule: Q04DX003 (ip), vehicle: saline) is -12 % of control; the T/C (dose: 1600.0 mg/kg/injection, schedule: Q04DX003 (ip), vehicle: saline) was -64 % of control.

Take `COC1C(C)OC(OC2CC(C)(O)Cc3cc4c(c(O)c32)C(=O)c2c(O)cc3c(c2C4=O)OC2OC3(C)C(O)C(N(C)C)C2O)C(OC)C1(C)OC` (configuration not stated): the T/C reads like this: under setting [4], 204 % of control; under setting [5], 207 % of control.

`CCCC(=O)OCc1cc(=O)n(C)c2c3c4c(cc12)c(C)cc(=O)n4CO3`: the T/C is 48 % of control under setting [9] and 70 % of control under setting [10].

Take `Cc1c(N)nc(C(CC(N)=O)NCC(N)C(N)=O)nc1C(=O)NC(C(=O)NC(C)C(O)C(C)C(=O)NC(C(=O)NCCc1nc(-c2nc(C(=O)NCCCNC(C)c3ccccc3)cs2)cs1)C(C)O)C(OC1OC(CO)C(O)C(O)C1OC1OC(CO)C(O)C(OC(N)=O)C1O)c1cnc[nH]1` (configuration not stated): the T/C under setting [15] is 43 % of control and 50 % of control; the T/C under setting [16] is 18 % of control and 22 % of control; the T/C under setting [17] is 17 % of control.

With `CN1CCN(CCCN2c3ccccc3Sc3ccc(C(F)(F)F)cc32)CC1`, the T/C under setting [14] is 58 % of control.

As for `C=CC(=O)N1CN(C(=O)C=C)CN(C(=O)C=C)C1`, the T/C under setting [18] was 52 % of control.

Take `Nc1nc(N)c2cc(CNc3ccc(C(=O)NC(CC(=O)O)CC(=O)O)cc3)ccc2n1`: the T/C under setting [9] was 75 % of control and the T/C under setting [10] was 49 % of control.

`C=C(C)[C@H]1Cc2c(ccc3c2O[C@@H]2COc4cc(OC)c(OC)cc4[C@@H]2C3=O)O1`: the T/C is, setting by setting: (dose: 3.13 mg/kg/injection, schedule: Q04DX003 (ip), vehicle: saline) 66 % of control; under setting [12], 86 % of control; under setting [13], 76 % of control.

Regarding `Cc1cc(N(CC(C)Br)CC(C)Br)ccc1N=Nc1ccccc1C(=O)O` (configuration not stated), the T/C was 75 % of control (dose: 3.13 mg/kg/injection, schedule: Q04DX003 (ip), vehicle: saline with Tween-80); 73 % of control (dose: 6.25 mg/kg/injection, schedule: Q04DX003 (ip), vehicle: saline with Tween-80); 61 % of control under setting [18].

As for `COc1cccc2c1C(=O)c1c(O)c3c(c(O)c1C2=O)C[C@@](O)(C(=O)CO)C[C@@H]3OC1CC(N)CC(C)O1` (some centres not stated), the T/C was 93 % of control (dose: 0.13 mg/kg/injection, schedule: Q04DX003 (ip), vehicle: water); 112 % of control (dose: 0.25 mg/kg/injection, schedule: Q04DX003 (ip), vehicle: water); 97 % of control (dose: 0.5 mg/kg/injection, schedule: Q04DX003 (ip), vehicle: water); 93 % of control (dose: 0.75 mg/kg/injection, schedule: Q04DX003 (ip), vehicle: water); 65 % of control under setting [11]; 78 % of control (dose: 1.5 mg/kg/injection, schedule: Q04DX003 (ip), vehicle: water). In addition, for the setting “dose: 3.0 mg/kg/injection, schedule: Q04DX003 (ip), vehicle: water”, the T/C was 63 % of control.

Turning to `CC(C)CCCCCCCCCCCCC(=O)NCC(=O)NC1C(C)OC(Nc2ncnc3nc[nH]c23)C(O)C1O` (configuration not stated), under “dose: 3.13 mg/kg/injection, schedule: Q04DX003 (ip), vehicle: distilled water + Tween-80”, the T/C is 102 % of control.

`CCCCNCCCNCCCNC(=O)c1csc(-c2csc(CCNC(=O)C(NC(=O)C(C)C(O)C(C)NC(=O)C(NC(=O)c3nc(C(CC(N)=O)NCC(N)C(N)=O)nc(N)c3C)C(OC3OC(CO)C(O)C(O)C3OC3OC(CO)C(O)C(OC(N)=O)C3O)c3cnc[nH]3)C(C)O)n2)n1` (configuration not stated): the T/C runs as follows: under setting [15], 49 % of control and 57 % of control; under setting [16], 29 % of control (2×) and 49 % of control; under setting [17], 5 % of control and 12 % of control and 18 % of control; (dose: 120.0 mg/kg/injection, schedule: Q04DX003 (ip), vehicle: saline) 2 % of control.

On to `CN(C)N=Nc1cccc(C(N)=O)c1`, for which the T/C by setting is: under setting [9], 102 % of control; under setting [10], 87 % of control; (dose: 400.0 mg/kg/injection, schedule: Q04DX003 (ip), vehicle: Klucel (hydroxypropylcellulose) (HPC)) 81 % of control.

On to `CC(=O)OCC1OC(n2ccc(N)nc2=O)C(OC(C)=O)C1OC(C)=O` (configuration not stated), for which the T/C is 60 % of control under setting [6]; 62 % of control under setting [7]; 39 % of control under setting [8]; 39 % of control (dose: 800.0 mg/kg/injection, schedule: Q04DX003 (ip), vehicle: suspension in saline).

Values taken from PubChem BioAssay AID294 (DTP/NCI, 2004).
